Several values for one entry are separate records, joined by “and”; a condition that tells them apart may be missing. Equal entries are not always repeated.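 Cells were grown in 96-well plates and exposed to each compound for 48 hours at five concentrations; endpoints were interpolated linearly between bracketing concentrations, or set to the highest concentration if not reached. At the GI50, growth is halved. Definition used: TGI = concentration required for complete inhibition of growth.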
What was measured:
Assay in all cases: DTP human tumour cell line panel, 48 h
SR leukemia = test system: SR leukemia
IGROV1 ovarian = test system: IGROV1 ovarian
786-0 renal = test system: 786-0 renal
OVCAR-4 ovarian = test system: OVCAR-4 ovarian
COLO 205 colon = test system: COLO 205 colon
NCI-H226 lung = test system: NCI-H226 lung
NCI-H460 lung = test system: NCI-H460 lung
KM12 colon = test system: KM12 colon
LOX IMVI melanoma = test system: LOX IMVI melanoma
OVCAR-5 ovarian = test system: OVCAR-5 ovarian

SMILES | GI50 (SR leukemia) | TGI (SR leukemia) | GI50 (IGROV1 ovarian) | TGI (IGROV1 ovarian) | GI50 (786-0 renal) | TGI (786-0 renal) | GI50 (OVCAR-4 ovarian) | TGI (OVCAR-4 ovarian) | GI50 (COLO 205 colon) | TGI (COLO 205 colon) | GI50 (NCI-H226 lung) | TGI (NCI-H226 lung) | GI50 (NCI-H460 lung) | TGI (NCI-H460 lung) | TGI (KM12 colon) | GI50 (LOX IMVI melanoma) | TGI (LOX IMVI melanoma) | TGI (OVCAR-5 ovarian) | GI50 (KM12 colon) | GI50 (OVCAR-5 ovarian)
CC(C)(C)c1cc(NC(=O)Cc2ccc(-c3cnc4cc(-c5cnn(CCN6CCOCC6)c5)ccc4n3)cc2)no1 | 0.197 µM and 0.336 µM and 0.0938 µM | 50 µM and > 100 µM and > 3 µM | 0.106 µM and 0.104 µM | 0.65 µM and 1.11 µM | 0.297 µM and 0.764 µM and 0.092 µM | 50 µM and > 100 µM and > 3 µM | 0.158 µM and 0.363 µM and 0.0439 µM | 50 µM and 14.4 µM and > 1.16 µM | 0.836 µM and 0.0931 µM | 50 µM and > 3 µM | 0.223 µM and 0.533 µM and 0.0783 µM | 50 µM and > 100 µM and > 3 µM | 0.181 µM and 0.32 µM and 0.0456 µM | 50 µM and > 100 µM and > 3 µM | 50 µM and > 100 µM and > 3 µM | 0.248 µM and 0.416 µM and 0.0821 µM | 50 µM and > 100 µM and > 3 µM | 50 µM and > 100 µM and > 3 µM |  | 
CCCS(=O)(=O)/C(=C(\c1ccc(Br)cc1)S(=O)(=O)CCC)c1ccc(Br)cc1 |  | > 10 µM |  | > 10 µM |  | > 10 µM |  | > 10 µM |  | > 10 µM |  | > 10 µM |  | > 10 µM | > 10 µM |  | > 10 µM | > 10 µM |  | 
COc1ccc2nc3cc(Cl)ccc3c(NCCN)c2c1 | 1.44 µM | 5.4 µM |  |  | 1.63 µM | 3.05 µM | 1.61 µM | 3.02 µM | 1.53 µM | 3.14 µM | 4.75 µM | > 100 µM |  |  | 3.46 µM |  |  |  | 1.67 µM | 
CO[C@H]1C=C[C@@]23c4cc5c(cc4CO[C@]2(O)CN(C)[C@H]3C1)OCO5 |  |  |  | > 100 µM |  | > 100 µM |  | > 100 µM |  | > 100 µM |  | > 100 µM |  | > 100 µM | > 100 µM |  | > 100 µM | > 100 µM |  | 
CC(=O)O.[Au].c1ccc([PH+](c2ccccc2)c2ccccc2)cc1 |  |  | 2.24 µM | 6.95 µM | 1.67 µM | 3.27 µM | 2 µM | 5.02 µM | 1.99 µM | 4.73 µM | 6.59 µM | 19.1 µM | 17.2 µM | 74.7 µM | 39.8 µM | 2.54 µM | 7.98 µM | 28.6 µM | 11.7 µM | 14.4 µM
C/C=C1/C(=C/c2[nH]c(/C=c3\[nH]/c(=C/C4=NC(=O)C(CC)=C4C)c(C)c3CCC(=O)O)c(CCC(=O)O)c2C)NC(=O)C1C (stereo not drawn) |  |  | > 150 µg/mL | > 150 µg/mL | > 150 µg/mL | > 150 µg/mL | > 150 µg/mL | > 150 µg/mL | > 150 µg/mL | > 150 µg/mL | > 150 µg/mL | > 150 µg/mL | > 150 µg/mL | > 150 µg/mL |  | > 150 µg/mL | > 150 µg/mL | > 150 µg/mL |  | > 150 µg/mL
c1cc[c]([Pb]([c]2ccccc2)[c]2ccccc2)cc1 | 14.4 µM | 74.6 µM | 10 µM | 32 µM | 11.4 µM | 33.2 µM | 22 µM | > 100 µM | 14.8 µM | 30.3 µM |  |  | 20.2 µM | > 100 µM | > 100 µM | 3.24 µM |  | 34.9 µM | 23.4 µM | 11 µM
CN(C)C(c1ccccc1)C(O)c1ccccc1 (stereo not drawn) |  |  |  | > 100 µM |  | > 100 µM |  |  |  | > 100 µM |  | > 100 µM |  | > 100 µM | > 100 µM |  | > 100 µM |  |  | 
Cn1c2ccccc2c2c3[nH]c(=O)[nH]c(=O)c3c3c4ccccc4n(C)c3c21 |  |  | 2.14 µM | 12 µM | 1.88 µM | 4.34 µM |  |  | 2.44 µM | > 100 µM | 1.66 µM | 5.37 µM | 3.09 µM | > 100 µM | > 100 µM | 2.13 µM | 11.9 µM | > 100 µM | 2.51 µM | 3 µM
N#CCC(=O)NC1C2CC3CC(C2)CC1C3 (stereo not drawn) |  |  |  | 59.1 µM |  | 35.8 µM |  | 50.5 µM |  | 34 µM |  | 48.5 µM |  | 32.3 µM | 32.5 µM |  | 23.8 µM | 36.9 µM |  | 
OC/C=C(\I)CCCOCOCc1ccccc1 |  |  |  | > 100 µM |  | > 100 µM |  | > 100 µM |  | > 100 µM |  | > 100 µM |  | > 100 µM | > 100 µM |  | 45.9 µM | > 100 µM |  | 
CCCCCCC(=O)C/C(=N/NC(N)=S)C(=O)NC1C2CC3CC(C2)CC1C3 (stereo not drawn) |  |  |  | > 100 µM |  | > 100 µM |  | > 100 µM |  | > 100 µM |  | > 100 µM |  | > 100 µM | > 100 µM |  | > 100 µM | > 100 µM |  | 
CC(=O)N1C/C(=C\c2ccc(N(C)C)cc2)C(=O)/C(=C/c2ccc(N(C)C)cc2)C1 |  | > 100 µM |  | > 100 µM |  | > 100 µM |  | > 100 µM |  |  |  | > 100 µM |  |  | > 100 µM |  | > 100 µM | > 100 µM |  | 
Cc1nc2ccccc2c(=O)n1-c1ccccc1F |  |  |  | > 100 µM |  | > 100 µM |  | > 100 µM |  | > 100 µM |  | > 100 µM |  | > 100 µM | > 100 µM |  | > 100 µM | > 100 µM |  | 
CNc1nc(N)c(N=O)c(Nc2ccc(Br)cc2)n1 |  | > 100 µM |  | > 100 µM |  | > 100 µM |  |  |  | > 100 µM |  |  |  | > 100 µM | > 100 µM |  | > 100 µM | > 100 µM |  | 
FC(F)(F)c1nc(-c2ccccc2)oc1Sc1nnc(Sc2oc(-c3ccccc3)nc2C(F)(F)F)s1 |  | 41 µM |  | 49.3 µM |  | 74 µM |  | 28 µM |  | > 69.8 µM |  |  |  | > 100 µM | > 100 µM |  | 24.9 µM | > 100 µM |  | 
CN1C(=O)c2ccccc2NC(=O)C12O[C@@H]2c1cccc(O)c1 (stereo partly drawn) |  | > 100 µM |  | > 100 µM |  | > 100 µM |  | > 100 µM |  | > 100 µM |  |  |  | > 100 µM | > 100 µM |  | > 100 µM | > 100 µM |  | 
C=C1CC[C@@H]2[C@](C)(COC(C)=O)[C@H](OC(C)=O)CC[C@@]2(C)[C@@H]1CC(Nc1ccc(S(=O)(=O)Nc2ncccn2)cc1)C1=CCOC1=O (stereo partly drawn) | 0.313 µM | 17.2 µM | 2.04 µM | 4.41 µM | 1.77 µM | 3.39 µM | 1.85 µM | 5.26 µM | 1.78 µM | 3.8 µM |  |  | 1.98 µM | 4.06 µM | 5.54 µM | 0.891 µM | 2.21 µM | 3.85 µM | 2.33 µM | 1.98 µM
CC(C)CCCC(=O)CCCCCCC(=O)CCN(O)C(=O)C(N)CO (stereo not drawn) |  |  |  | 31.9 µM |  | 36.2 µM |  |  |  | 53.5 µM |  | 35.6 µM |  |  | 35.9 µM |  | 30.9 µM | 50.6 µM |  | 

Reference: PubChem BioAssay (NCI)
